The results in this text go back to patent US20130184320A1, “Imine Compounds” (BASF SE, priority 2010, published 2013).

What all share (format): in vivo
One data set deals with bemisia argentifolii. The data set can be described thus: B.8 Silverleaf whitefly spray test on cotton plants. Conditions: 300 ppm; silverleaf whitefly adults on sprayed cotton; 3 days. From the text: B.8 Silverleaf Whitefly (bemisia argentifolii)
The active compounds were formulated in cyclohexanone as a 10,000 ppm solution supplied in tubes. The tubes were inserted into an automated electrostatic sprayer equipped with an atomizing nozzle and they served as stock solutions for which lower dilutions were made in 50% acetone:50% water (v/v). A nonionic surfactant (Kinetic®) was included in the solution at a volume of 0.01% (v/v).
Cotton plants at the cotyledon stage (one plant per pot) were sprayed by an automated electrostatic plant sprayer equipped with an atomizing spray nozzle. The plants were dried in the sprayer fume hood and then removed from the sprayer. Each pot was placed into a plastic cup and about 10 to 12 whitefly adults (approximately 3-5 days old) were introduced. The insects were collected using an aspirator and a nontoxic Tygon® tubing connected to a barrier pipette tip. The tip, containing the collected insects, was then gently inserted into the soil containing the treated plant, allowing insects to crawl out of the tip to reach the foliage for feeding. Cups were covered with a reusable screened lid. […] Mortality was assessed 3 days after treatment, compared to untreated control plants.

The next data set relates to Aphis craccivora. The data set can be described thus: B.2 Cowpea aphid spray test on potted cowpea plants. Conditions: sprayed plants, assessed after 24, 72 and 120 hours, read-out: mortality in comparison with untreated controls. As to the method:
B.2 Cowpea Aphid (Aphis craccivora)
Potted cowpea plants colonized with approximately 100-150 aphids of various stages were sprayed after the pest population had been recorded. Population reduction was assessed after 24, 72, and 120 hours.

For the next data set, the system named is Plutella xylostella. The data set can be described thus: B.3 Diamond back moth leaf dip test on Chinese cabbage. Conditions: foliar, recorded 24, 72 and 120 hours after treatment, read-out: mortality in comparison with untreated controls. As to the method: B.3 Diamond Back Moth (Plutella xylostella)
Leaves of Chinese cabbage were dipped in test solution and air-dried. Treated leaves were placed in petri dished lined with moist filter paper. Mortality was recorded 24, 72, and 120 hours after treatment.

The test system of the next data set is Myzus persicae. Briefly: B.4 Green peach aphid systemic test, artificial diet in 96-well plates. Conditions: 72 h, 3 days, read-out: mortality in comparison with untreated controls. From the text:
B.4 Green Peach Aphid (Myzus persicae)
For evaluating control of green peach aphid (Myzus persicae) through systemic means the test unit consisted of 96-well-microtiter plates containing liquid artificial diet under an artificial membrane.
The compounds were formulated using a solution containing 75% v/v water and 25% v/v DMSO. Different concentrations of formulated compounds were pipetted into the aphid diet, using a custom built pipetter, at two replications.
After application, 5-8 adult aphids were placed on the artificial membrane inside the microtiter plate wells. The aphids were then allowed to suck on the treated aphid diet and incubated at about 23±1° C. and about 50±5% relative humidity for 3 days. Aphid mortality and fecundity was then visually assessed.

The next data set deals with Ceratitis capitata. The data set can be described thus: B.5 Mediterranean fruitfly microtiter plate diet test. Conditions: 120 h, Mediterranean fruitfly eggs and larvae on diet, 5 days, read-out: mortality in comparison with untreated controls. On the procedure:
B.5 Mediterranean Fruitfly (Ceratitis capitata)
For evaluating control of Mediterranean fruitfly (Ceratitis capitata) the test unit consisted of microtiter plates containing an insect diet and 50-80 C. capitata eggs.
The compounds were formulated using a solution containing 75% v/v water and 25% v/v DMSO. Different concentrations of formulated compounds were sprayed onto the insect diet at 5 μl, using a custom built micro atomizer, at two replications.
(§1) After application, microtiter plates were incubated at about 28±1° C. and about 80±5% relative humidity for 5 days. Egg and larval mortality was then visually assessed.

Another data set relates to Dichromothrips corbetti. Briefly: B.6 Orchid thrips floral-immersion test. Conditions: 96 h, orchid thrips adults, 4 days, read-out: mortality in comparison with untreated controls. On the procedure:
B.6 Orchid Thrips (dichromothrips corbetti)
Dichromothrips corbetti adults used for bioassay were obtained from a colony maintained continuously under laboratory conditions. For testing purposes, the test compound was diluted to a concentration of 500 ppm (wt compound: vol diluent) in a 1:1 mixture of acetone:water (vol:vol), plus 0.01% vol/vol Kinetic® surfactant.
Thrips potency of each compound was evaluated by using a floral-immersion technique. Plastic petri dishes were used as test arenas. All petals of individual, intact orchid flowers were dipped into treatment solution and allowed to dry. Treated flowers were placed into individual petri dishes along with 10-15 adult thrips. The petri dishes were then covered with lids. All test arenas were held under continuous light and a temperature of about 28° C. for duration of the assay. After 4 days, the numbers of live thrips were counted on each flower, and along inner walls of each petri dish. The level of thrips mortality was extrapolated from pre-treatment thrips numbers.

The subject of a further data set is Heliothis virescens. Briefly: B.11 Tobacco budworm I microtiter plate diet test. Conditions: 120 h, tobacco budworm eggs and larvae on diet, 5 days, read-out: mortality in comparison with untreated controls. As to the method: B.11 Tobacco Budworm (Heliothis virescens) I
For evaluating control of tobacco budworm (Heliothis virescens) the test unit consisted of 96-well-microtiter plates containing an insect diet and 15-25 H. virescens eggs.
The compounds were formulated using a solution containing 75% v/v water and 25% v/v DMSO. Different concentrations of formulated compounds were sprayed onto the insect diet at 10 μl, using a custom built micro atomizer, at two replications.
as §1

Another data set relates to Anthonomus grandis. Briefly: B.12 Boll weevil microtiter plate diet test. Conditions: 120 h, boll weevil eggs and larvae on diet, 5 days, read-out: mortality in comparison with untreated controls. On the procedure: B.12 Boll Weevil (Anthonomus grandis)
For evaluating control of boll weevil (Anthonomus grandis) the test unit consisted of 24-well-microtiter plates containing an insect diet and 20-30 A. grandis eggs.
The compounds were formulated using a solution containing 75% v/v water and 25% v/v DMSO. Different concentrations of formulated compounds were sprayed onto the insect diet at 20 μl, using a custom built micro atomizer, at two replications.
After application, microtiter plates were incubated at about 23±1° C. and about 50±5% relative humidity for 5 days. Egg and larval mortality was then visually assessed.

With `CNC(=O)NN=Cc1ccc(N2CCC(c3cc(Cl)cc(Cl)c3)(C(F)(F)F)C2)cc1Cl` (centres unmarked) [Compound 2-4], in the data set with bemisia argentifolii, the “mortality in comparison with untreated controls” value is given as “at least 75%”.
Turning to `O=C(NCC(F)(F)F)N/N=C/c1ccc(N2CC(c3cc(Cl)cc(Cl)c3)(C(F)(F)F)OC2=O)cc1Cl` (centres unmarked) [Compound 3-1, 1-[(E)-[2-chloro-4-[5-(3,5-dichlorophenyl)-2-oxo-5-(trifluoromethyl)oxazolidin-3-yl]phenyl]methyleneamino]-3-(2,2,2-trifluoroethyl)urea], the mortality at 500 ppm with Aphis craccivora, in the data set on Plutella xylostella and with Dichromothrips corbetti was not below 75% each time. Moreover, the mortality at 2500 ppm in the data set with Myzus persicae, in the data set with Ceratitis capitata, in the data set on Heliothis virescens and with Anthonomus grandis was not below 75% in each case.
